In patent US8173645B2 (Takeda San Diego, Inc., priority 2007, dated 2012) one finds EC50 and Emax data, which are given here for 11 compounds.

In this test the target is T1, glucokinase (GK), residues 12-465 of the human enzyme (Homo sapiens, UniProt P35557).
T1 construct: I.D. No. 1 corresponds to residues 12-465 of glucokinase; made in house; host or cells: E. coli DH10b-Tlr
T1 sequence (P35557 with tags, fused parts or gaps isoform P35557-2): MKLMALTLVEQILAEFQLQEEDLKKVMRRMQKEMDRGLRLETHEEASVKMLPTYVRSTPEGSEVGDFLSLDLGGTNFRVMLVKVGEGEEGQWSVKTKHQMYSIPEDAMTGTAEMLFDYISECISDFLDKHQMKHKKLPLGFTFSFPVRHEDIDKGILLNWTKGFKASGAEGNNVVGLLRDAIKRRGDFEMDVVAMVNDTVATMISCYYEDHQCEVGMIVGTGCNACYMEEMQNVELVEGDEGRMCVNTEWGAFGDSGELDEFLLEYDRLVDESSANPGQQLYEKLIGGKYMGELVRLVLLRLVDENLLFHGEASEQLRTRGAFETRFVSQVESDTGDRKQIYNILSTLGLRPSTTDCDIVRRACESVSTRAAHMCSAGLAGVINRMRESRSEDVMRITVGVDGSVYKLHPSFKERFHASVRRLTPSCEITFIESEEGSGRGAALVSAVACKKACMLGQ
The test is described as follows: Enzymatic glucokinase activity assay (KinaseGlo luminescence, ATP consumption). The test is classed as biochemical. The note with it: 5 μM ATP, 5 mM Glucose; for EC50: GK activation, Kact = concentration giving 50% of the maximal increase in GK activity, read-out: pKact; for Emax: calculated maximal gain in GK enzyme activity at a saturating concentration of the compound, read-out: % ACTmax. The procedure, abridged:
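C-terminally FLAG-tagged enzyme expressed in E. coli and purified. Reaction: 25 mM Hepes pH 7.2, 25 mM NaCl, 10 mM MgCl2, 0.01% Brij35, 1 mM DTT, 5 μM ATP, 5 mM glucose, 2% DMSO, 60 min at room temperature. Remaining ATP was read by luciferase luminescence; pKact and % ACTmax came from nonlinear fits of 11-point 2-fold dilutions.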

Consider `O=C(O)c1ccc(S(=O)(=O)N2CCN([C@@H](CC3CCCCC3)C(=O)Nc3nccs3)C(=O)C2)cc1` [Example 91, (S)-4-(4-(3-cyclohexyl-1-oxo-1-(thiazol-2-ylamino)propan-2-yl)-3-oxopiperazin-1-ylsulfonyl)benzoic acid], for which the EC50 is at least 3160 nM and the Emax is at most 74%.

In the case of `COc1cccc(S(=O)(=O)N2CCN([C@@H](CC3CCCCC3)C(=O)Nc3nccs3)C(=O)C2)c1` [Example 92, (S)-3-cyclohexyl-2-(4-(3-methoxyphenylsulfonyl)-2-oxopiperazin-1-yl)-N-(thiazol-2-yl)propanamide], the EC50 lay within 794 to 1260 nM and the Emax was at least 119%.

Regarding `O=C(Nc1nccs1)[C@H](CC1CCCCC1)N1CCN(S(=O)(=O)CC(F)(F)F)CC1=O` [Example 93, (S)-3-cyclohexyl-2-(2-oxo-4-(2,2,2-trifluoroethylsulfonyl)piperazin-1-yl)-N-(thiazol-2-yl)propanamide], the EC50 lay within 1580 to 2510 nM and the Emax was at least 119%.

On to `Cc1ccc(S(=O)(=O)N2CCN([C@@H](CC3CCCCC3)C(=O)Nc3nccs3)C(=O)C2)cc1Cl` [Example 94, (S)-2-(4-(3-chloro-4-methylphenylsulfonyl)-2-oxopiperazin-1-yl)-3-cyclohexyl-N-(thiazol-2-yl)propanamide], for which the EC50 was in the range of 794 to 1260 nM and the Emax was 108 to 119%.

As to `COc1ccc(C)cc1S(=O)(=O)N1CCN([C@@H](CC2CCCCC2)C(=O)Nc2nccs2)C(=O)C1` [Example 95, (S)-3-cyclohexyl-2-(4-(2-methoxy-5-methylphenylsulfonyl)-2-oxopiperazin-1-yl)-N-(thiazol-2-yl)propanamide], the EC50 was in the range of 794 to 1260 nM and the Emax was at least 119%.

On to `O=C(Nc1nccs1)[C@H](CC1CCCCC1)N1CCN(S(=O)(=O)C2CC2)CC1=O` [Example 96, (S)-3-cyclohexyl-2-(4-(cyclopropylsulfonyl)-2-oxopiperazin-1-yl)-N-(thiazol-2-yl)propanamide], for which the EC50 fell in the range of 794 to 1260 nM and the Emax is 108 to 119%.

Take `O=C(Nc1nccs1)[C@H](CC1CCCCC1)N1CCN(S(=O)(=O)c2ccc3ncsc3c2)CC1=O` [Example 97, (S)-2-(4-(benzo[d]thiazol-6-ylsulfonyl)-2-oxopiperazin-1-yl)-3-cyclohexyl-N-(thiazol-2-yl)propanamide]: the EC50 lay within 794 to 1260 nM and the Emax is 97.1 to 107%.

As to `O=C(Nc1nccs1)[C@H](CC1CCCCC1)N1CCN(S(=O)(=O)CCc2ccc(Cl)cc2)CC1=O` [Example 98, (S)-2-(4-(4-chlorophenethylsulfonyl)-2-oxopiperazin-1-yl)-3-cyclohexyl-N-(thiazol-2-yl)propanamide], the EC50 fell in the range of 794 to 1260 nM and the Emax was at most 74%.

For `COc1ccc(S(=O)(=O)N2CCN([C@@H](CC3CCCCC3)C(=O)Nc3nccs3)C(=O)C2)cc1F` [Example 99, (S)-3-cyclohexyl-2-(4-(3-fluoro-4-methoxyphenylsulfonyl)-2-oxopiperazin-1-yl)-N-(thiazol-2-yl)propanamide], the EC50 was in the range of 794 to 1260 nM and the Emax was 108 to 119%.

For the compound `O=C(Nc1nccs1)[C@H](CC1CCCCC1)N1CCN(S(=O)(=O)CCC(F)(F)F)CC1=O` [Example 100, (S)-3-cyclohexyl-2-(2-oxo-4-(3,3,3-trifluoropropylsulfonyl)piperazin-1-yl)-N-(thiazol-2-yl)propanamide], the EC50 lay in the range of 794 to 1260 nM and the Emax was at least 119%.

For `CC(C)Oc1ccc(S(=O)(=O)N2CCN([C@@H](CC3CCCCC3)C(=O)Nc3nccs3)C(=O)C2)cc1` [Example 101, (S)-3-cyclohexyl-2-(4-(4-isopropoxyphenylsulfonyl)-2-oxopiperazin-1-yl)-N-(thiazol-2-yl)propanamide], the EC50 is at most 631 nM and the Emax is at most 74%.
